Data taken from paper PMC13192270, “RhlR quorum-sensing receptor ligand sensitivity regulates the differential expression of phenazine genes in Pseudomonas aeruginosa” (Journal of Bacteriology, 2026).

System: ΔrhlI strain expressing RhlR A44M
Experiment: RNA-seq gene expression
Type: cell-based, Pseudomonas aeruginosa
Set-up: opmD Expression value / mexI Expression value / mexH Expression value / mexG Expression value / lasB Expression value / rhlA Expression value / rhlB Expression value / rhlR Expression value / lecB Expression value / fhp Expression value / chiC Expression value / hcnA Expression value / mvfR Expression value / katB Expression value / norC Expression value / norB Expression value / katA Expression value: unit not given here
Details: 2 µM C4HSL
Procedure: To determine the effects of hypo- and hypersensitivity to C4HSL on RhlR-dependent transcription activation in P. aeruginosa, we performed RNA-seq on ΔrhlI strains expressing WT RhlR, RhlR T58L, and RhlR A44M in the presence of 2 µM C4HSL. We chose this approach to better control the levels of C4HSL across samples. All gene expression analyses were done relative to a ΔrhlI strain without exogenous supplementation of AHL. Thus, we examined the total increase in C4HSL-dependent gene regulation. We observed increased rhlA RNA levels in strains expressing WT RhlR and the RhlR T58L variant compared to ΔrhlI without C4HSL or a strain expressing the RhlR A44M variant (Table 2; Table S1). […] To corroborate our RNA-seq data, we built an rhlA promoter fusion to mScarlet and assayed reporter levels in the same genetic backgrounds as our transcriptomic experiment (Fig. S7D). Strains expressing hypersensitive RhlR variants produced similar levels of fluorescent signal relative to the WT strain, while a strain expressing a hyposensitive RhlR variant had diminished levels of fluorescent reporter (Fig. S7D).
A total of […] of overnight cultures was back diluted 1:100 in 20 mL of fresh LB media and incubated for 5 h at 37°C with shaking. Cells were harvested by centrifugation, and pellets were frozen until RNA extraction. RNA was extracted using the Invitrogen PureLink RNA Mini Kit. Pellets were resuspended in 100 µL lysozyme solution containing 10 mM Tris-HCl pH 8.0, 0.1 mM EDTA, and 1 mg/mL lysozyme. Five microliters of 1% SDS was added, and the solution was mixed with a vortex and incubated at room temperature for 5 min. A total of 350 µL lysis buffer (Invitrogen) was added with 10 µL 2-mercaptoethanol for each 1 mL of lysis buffer and vortexed. Cells were lysed by bead beating (BioSpec 0.1 MM Zirconia/Silica Beads) for two rounds of 50 s. Lysed cells were transferred to fresh microcentrifuge tubes with 250 µL of 100% ethanol and mixed with a vortex. Samples were spun in spin cartridges (Invitrogen) at 12,000 × g for 15 s at room temperature, and the flow-through was discarded. A total of 700 µL Wash Buffer I (Invitrogen) was added and spun at 12,000 × g for 15 s at room temperature, and the flow-through was discarded. A total of 500 µL Wash Buffer II (Invitrogen) with ethanol was added and centrifuged for 12,000 × g for 15 s at room temperature; the flow-through was discarded, and RNA samples were washed again. Cells were spun at 12,000 × g for 1 min at room temperature to dry the membrane with the bound RNA. A total of 50 µL RNAse-free water was added to the center of the spin cartridge, incubated at room temperature for 1 min, and centrifuged for 2 min at ≥12,000 × g at room temperature. Extracted RNA was then frozen at −80°C until further use.
Bulk RNA was sent to SeqCenter (Pittsburgh, PA) where it was processed for paired-end Illumina sequencing via rRNA depletion using Ribo-Zero Plus (Illumina). Fastq files generated by SeqCenter were processed using Rockhopper with default settings ([61][–][63]). Briefly, fastq files were aligned to the genome of Pseudomonas aeruginosa UCBPP-PA14. The reads were subsequently normalized using upper-quartile normalization, and transcript abundance was determined by reads per kilobase per million mapped reads. Differential gene expression analysis was conducted using a negative binomial distribution model, outputting a P-value for each transcript. The P-values were then corrected for false discovery using the Benjamini-Hochberg procedure, resulting in the q-values reported here (Table S2). SignalMap v2.0 (NimbleGen Systems) was used to visualize read counts for phzABCDEFG1/2, phzH, phzM, and phzS (Fig. 5). Aligned sequences generated in Rockhopper were converted to GFF files, and genes of interest were isolated into unique GFF files ([37]).

CCCC(=O)N[C@H]1CCOC1=O [C4HSL, N-butyryl-L-homoserine lactone]
chiC Expression value: 132,918.5
fhp Expression value: 8,878
hcnA Expression value: 38,430
katA Expression value: 3,887,333
katB Expression value: 13,211.5
lasB Expression value: 6,614,384
lecB Expression value: 208,420
mexG Expression value: 4,729.5
mexH Expression value: 11,247.5
mexI Expression value: 15,683.5
mvfR Expression value: 214,018
norB Expression value: 28,591
norC Expression value: 12,922.5
opmD Expression value: 6,012
phnA Expression value: 2,884,404
phnB Expression value: 694,083
phzA1 Expression value: 8,661
phzA2 Expression value: 11,533
phzB1 Expression value: 163,479
phzB2 Expression value: 178,704.5
phzC1 Expression value: 135,611.5
phzC2 Expression value: 156,044
phzD1 Expression value: 153,729
phzD2 Expression value: 137,242.5
phzE1 Expression value: 282,659.5
phzE2 Expression value: 202,642.5
phzF1 Expression value: 137,969
phzF2 Expression value: 139,410.5
phzG1 Expression value: 118,586
phzG2 Expression value: 88,845
phzM Expression value: 93,038
phzS Expression value: 303,377
pqsA Expression value: 3,743,059.5
pqsB Expression value: 5,794,985
pqsC Expression value: 5,614,134
pqsD Expression value: 6,055,112.5
pqsE Expression value: 3,188,208
rhlA Expression value: 200,100.5
rhlB Expression value: 165,369.5
rhlR Expression value: 581,659
chiC Log2fold change (vs ΔrhlI without AHL): −0.05904
fhp Log2fold change (vs ΔrhlI without AHL): 0.2001
hcnA Log2fold change (vs ΔrhlI without AHL): 0.2595
katA Log2fold change (vs ΔrhlI without AHL): 0.3253
katB Log2fold change (vs ΔrhlI without AHL): 0.1017
lasB Log2fold change (vs ΔrhlI without AHL): 1.048
lecB Log2fold change (vs ΔrhlI without AHL): −0.7762
mexG Log2fold change (vs ΔrhlI without AHL): 0.2215
mexH Log2fold change (vs ΔrhlI without AHL): 0.2256
mexI Log2fold change (vs ΔrhlI without AHL): −0.1584
mvfR Log2fold change (vs ΔrhlI without AHL): −0.1373
norB Log2fold change (vs ΔrhlI without AHL): −0.5108
norC Log2fold change (vs ΔrhlI without AHL): −0.6332
opmD Log2fold change (vs ΔrhlI without AHL): −0.2426
phnA Log2fold change (vs ΔrhlI without AHL): 0.3171
phnB Log2fold change (vs ΔrhlI without AHL): 0.2753
phzA1 Log2fold change (vs ΔrhlI without AHL): −1.792
phzA2 Log2fold change (vs ΔrhlI without AHL): 0.1326
phzB1 Log2fold change (vs ΔrhlI without AHL): −1.046
phzB2 Log2fold change (vs ΔrhlI without AHL): −0.2412
phzC1 Log2fold change (vs ΔrhlI without AHL): −0.6965
phzC2 Log2fold change (vs ΔrhlI without AHL): −0.2301
phzD1 Log2fold change (vs ΔrhlI without AHL): −0.5047
phzD2 Log2fold change (vs ΔrhlI without AHL): −0.458
phzE1 Log2fold change (vs ΔrhlI without AHL): −0.5209
phzE2 Log2fold change (vs ΔrhlI without AHL): −0.574
phzF1 Log2fold change (vs ΔrhlI without AHL): −0.731
phzF2 Log2fold change (vs ΔrhlI without AHL): −0.7224
phzG1 Log2fold change (vs ΔrhlI without AHL): −0.7812
phzG2 Log2fold change (vs ΔrhlI without AHL): −0.325
phzM Log2fold change (vs ΔrhlI without AHL): −1.898
phzS Log2fold change (vs ΔrhlI without AHL): −1.303
pqsA Log2fold change (vs ΔrhlI without AHL): 0.5012
pqsB Log2fold change (vs ΔrhlI without AHL): 0.621
pqsC Log2fold change (vs ΔrhlI without AHL): 0.5508
pqsD Log2fold change (vs ΔrhlI without AHL): 0.4552
pqsE Log2fold change (vs ΔrhlI without AHL): 0.3409
rhlA Log2fold change (vs ΔrhlI without AHL): −0.336
rhlB Log2fold change (vs ΔrhlI without AHL): 0.3232
rhlR Log2fold change (vs ΔrhlI without AHL): −0.1335
